In brackets after ≈: the same amount, converted by molar mass.
Tests used:
[1] = Acute toxicity in mice (Table 4); conditions: mouse, in vivo, po
Description: (§1) Next, in Table 4 are shown the curative actions (ED50 mg/Kg body wt.) and acute toxicities (LD50 mg/kg body wt.) of the typical nitrofuran derivatives of the present invention when used with infected mice.

[2] = tested on: Staphylococcus aureus 209P; experiment: Minimum growth inhibiting concentration (Table 1); format: cell-based; conditions: TSBI, pH 7.2, 37° C., 48 hours
Description: (§2) For information, the minimum growth inhibiting concentration is a value
(§3) concerning microorganisms cultivated in TSBI the pH of which was adjusted
(§4) to 7.2, each bacteria being incubated at 37° C. for 48 hours.

[3] = tested on: Salmonella pullorum chuyu 114; experiment: Minimum growth inhibiting concentration (Table 1); format: cell-based; conditions: Salmonella enterica, TSBI, pH 7.2, 37° C., 48 hours
Description: as §2, §3, §4

[4] = tested on: Klebsiella pneumoniae ST-101; experiment: Minimum growth inhibiting concentration (Table 1); format: cell-based; conditions: ST101, TSBI, pH 7.2, 37° C., 48 hours
Description: as §2, §3, §4

[5] = tested on: Bacillus Subtilis PCI219; experiment: Minimum growth inhibiting concentration (Table 1); format: cell-based; conditions: TSBI, pH 7.2, 37° C., 48 hours
Description: as §2, §3, §4

[6] = tested on: Proteus vulgaris HX-19; experiment: Minimum growth inhibiting concentration (Table 1); format: cell-based; conditions: HX19, TSBI, pH 7.2, 37° C., 48 hours
Description: as §2, §3, §4

[7] = tested on: Diplococcus pneumoniae DP-1; experiment: Minimum growth inhibiting concentration (Table 1); format: cell-based; conditions: Streptococcus pneumoniae, DP1, TSBI, pH 7.2, 37° C., 48 hours
Description: as §2, §3, §4

[8] = tested on: Salmonella enteritidis 1891; experiment: Minimum growth inhibiting concentration (Table 1); format: cell-based; conditions: Salmonella enterica, TSBI, pH 7.2, 37° C., 48 hours
Description: as §2, §3, §4

[9] = tested on: Pseudomonas aeruguinosa 347; experiment: Minimum growth inhibiting concentration (Table 1); format: cell-based; conditions: TSBI, pH 7.2, 37° C., 48 hours
Description: as §2, §3, §4

[10] = tested on: Escherichia coli O-55; experiment: Minimum growth inhibiting concentration (Table 1); format: cell-based; conditions: O55, TSBI, pH 7.2, 37° C., 48 hours
Description: as §2, §3, §4

[11] = tested on: Streptococcus hemolyticus A 089; experiment: Minimum growth inhibiting concentration (Table 1); format: cell-based; conditions: Streptococcus pyogenes, A089, TSBI, pH 7.2, 37° C., 48 hours
Description: as §2, §3, §4

[12] = tested on: Staphylococcus aureus 72r; experiment: Curative action in infected mice (Table 4); format: in vivo; conditions: 168 h, mice infected abdominally, oral in 5% gum arabic, observation one week
Description: as §1
(§5) Note.- The numerical values in the table denote the amounts per unit body
(§6) weight of the nitrofuran derivatives required for cure when the experimen
(§7) was carried out using mice of body weight of about 20 grams and injecting
(§8) thereinto abdominally the microorganism-containing solutions in amounts o
(§9) 0.2 ml (the microorganism-containing solutions used being those in the
(§10) cases of test microorganisms 1, 3 and 4 in which the microorganism cultur
(§11) liquids were diluted 10^5, 5 and 10^2 times, respectively, and in
(§12) the case of test microorganism 2 that which was concentrated 2 times),
(§13) after which the nitrofuran derivatives suspended in 5% gum arabic were
(§14) forcedly administered orally followed by observation for one week.

[13] = tested on: Streptococcus hemolyticus A 089; experiment: Curative action in infected mice (Table 4); format: in vivo; conditions: Streptococcus pyogenes, A089, 168 h, mice infected abdominally, oral in 5% gum arabic, observation one week
Description: as §1, §5, §6, §7, §8, §9, §10, §11, §12, §13, §14

[14] = tested on: Salmonella typhimium K-52; experiment: Curative action in infected mice (Table 4); format: in vivo; conditions: K52, 168 h, mice infected abdominally, oral in 5% gum arabic, observation one week
Description: as §1, §5, §6, §7, §8, §9, §10, §11, §12, §13, §14

[15] = tested on: Escherichia coli K-74; experiment: Curative action in infected mice (Table 4); format: in vivo; conditions: K74, 168 h, mice infected abdominally, oral in 5% gum arabic, observation one week
Description: as §1, §5, §6, §7, §8, §9, §10, §11, §12, §13, §14

[16] = tested on: infected mice; experiment: Curative action in infected mice; format: in vivo; conditions: oral
Description: as §5, §6, §7, §8, §9, §10, §11, §12, §13, §14

[17] = tested on: Streptococcus hemolyticus, Staphylococcus aureus, Escherichia coli and salmonella species; conditions: cited from earlier work
[18] = in vivo; cited from earlier work
[19] = tested on: microorganisms; conditions: compound (A), background; cited from earlier work

Row | Structure (SMILES) | LD50 [1] [mg/kg] | MIC [2] [µg/mL] | MIC [3] [µg/mL] | MIC [4] [µg/mL] | MIC [5] [µg/mL] | MIC [6] [µg/mL] | MIC [7] [µg/mL] | MIC [8] [µg/mL] | MIC [9] [µg/mL] | MIC [10] [µg/mL] | MIC [11] [µg/mL] | ED50 [12] [mg/kg] | ED50 [13] [mg/kg] | ED50 [14] [mg/kg] | ED50 [15] [mg/kg] | Curative effect in infected mice (in words) [16] | Antimicrobial activity in vitro (in words) [17] | Concentration inhibiting the growth ([17]; in vitro, Streptococcus hemolyticus, Staphylococcus aureus, Escherichia coli and salmonella species) | Concentration in blood [18] | In vivo antimicrobial activity [19]
1 | NC(=O)C(CO)NC(=O)c1ccc(C=Cc2ccc([N+](=O)[O-])o2)cc1 (stereo not drawn) [Example 19, Para-[2-(5'-nitro-2'-furyl)-vinyl]-N-benzoylserine amide] | > 2000 | 1.56 (≈ 4.52 µM) | 6.25 (≈ 18.1 µM) | 6.25 (≈ 18.1 µM) | < 0.19 | 6.25 (≈ 18.1 µM) | 0.78 (≈ 2.26 µM) | 1.56 (≈ 4.52 µM) | 25 (≈ 72.4 µM) | 12.5 (≈ 36.2 µM) | < 0.19 | 65 | 46 |  |  |  |  |  |  | 
2 | CC(O)CNC(=O)c1ccc(C=Cc2ccc([N+](=O)[O-])o2)cc1 (stereo not drawn) [Example 5, 3-Para[2'-(5"-nitro-2"-furyl)-vinyl]-benzoylamino-2-propanol] | 1700 | 0.78 (≈ 2.47 µM) | 6.25 (≈ 19.8 µM) | 3.13 (≈ 9.9 µM) | < 0.19 | 3.13 (≈ 9.9 µM) | 0.78 (≈ 2.47 µM) | 1.56 (≈ 4.93 µM) | > 25 | 6.25 (≈ 19.8 µM) | 0.19 (≈ 0.601 µM) | 37 | 19 | 110 |  |  |  |  |  | 
3 | O=C(NCCOCCO)c1ccc(C=Cc2ccc([N+](=O)[O-])o2)cc1 [Example 11, 2-Para-[2'-(5"-nitro-2"-furyl)-vinyl]-benzoylaminoethoxy-2-ethanol] | 1850 | 1.56 (≈ 4.5 µM) | 6.25 (≈ 18 µM) | 3.13 (≈ 9.04 µM) | < 0.19 | 6.25 (≈ 18 µM) | 0.78 (≈ 2.25 µM) | 1.56 (≈ 4.5 µM) | 25 (≈ 72.2 µM) | 6.25 (≈ 18 µM) | < 0.19 | 21 | 13 | 100 | 29 |  |  |  |  | 
4 | O=C(NCCO)c1cccc(C=Cc2ccc([N+](=O)[O-])o2)c1 [Example 2, 2-Meta-[2'-(5"-nitro-2"-furyl)-vinyl]-benzoylamino-ethanol] | 2000 | 0.78 (≈ 2.58 µM) | 3.13 (≈ 10.4 µM) | 1.56 (≈ 5.16 µM) | < 0.19 | 6.25 (≈ 20.7 µM) | < 0.19 | 0.78 (≈ 2.58 µM) | 25 (≈ 82.7 µM) | 3.13 (≈ 10.4 µM) | < 0.19 | 37 | 34 | 150 | 45 |  |  |  |  | 
5 | O=C(NCCCO)c1ccc(C=Cc2ccc([N+](=O)[O-])o2)cc1 [Example 4, 3-Para-[2'-(5"-nitro-2"-furyl)-vinyl]-benzoylamino-1-propanol] | 1900 | 0.78 (≈ 2.47 µM) | 6.25 (≈ 19.8 µM) | 3.13 (≈ 9.9 µM) | < 0.19 | 6.25 (≈ 19.8 µM) | 6.25 (≈ 19.8 µM) | 3.13 (≈ 9.9 µM) | > 25 | 3.13 (≈ 9.9 µM) | < 0.19 | 50 | 24 | 125 |  |  |  |  |  | 
6 | NC(=O)CNC(=O)c1ccc(C=Cc2ccc([N+](=O)[O-])o2)cc1 [Example 16, Para-[2-(5'-nitro-2'-furyl)-vinyl]-N-benzoylglycine amide] | 2000 | 0.78 (≈ 2.47 µM) | 3.13 (≈ 9.93 µM) | 3.13 (≈ 9.93 µM) | < 0.19 | 3.13 (≈ 9.93 µM) | 0.39 (≈ 1.24 µM) | 0.78 (≈ 2.47 µM) | > 25 | 3.13 (≈ 9.93 µM) | < 0.19 | 30 | 34 | 110 | 34 |  |  |  |  | 
7 | NC(=O)c1ccc(C=Cc2ccc([N+](=O)[O-])o2)cc1 [Compound A, Para-[2-(5'-nitro-2'-furyl)-vinyl]-benzoylamine, reference compound] | > 400 |  |  |  |  |  |  |  |  |  |  | > 400 | > 400 | > 400 | > 400 | no curative effects were noted | extremely superior antimicrobial activity in vitro | 0.1-3 micrograms per milliliter | can scarcely be noted | not observed
